Experimental data as given in ChEMBL document CHEMBL1201862, “PubChem BioAssay data set” (2004).
Values belong to the molecule of their own block, whether it stands above or below them. Activity calls are given as the source filed them.

What was measured:
[1] = target: Cytochrome P450 2C19 (Homo sapiens, UniProt P33261); test: Cytochrome panel assay with activity outcomes. Panel member name: p450-cyp2c19 Compounds with AC50 equal or less than 10 uM are considered active; type: functional; settings: read-out: AC50
Cytochrome P450 2C19, sequence (P33261 whole entry): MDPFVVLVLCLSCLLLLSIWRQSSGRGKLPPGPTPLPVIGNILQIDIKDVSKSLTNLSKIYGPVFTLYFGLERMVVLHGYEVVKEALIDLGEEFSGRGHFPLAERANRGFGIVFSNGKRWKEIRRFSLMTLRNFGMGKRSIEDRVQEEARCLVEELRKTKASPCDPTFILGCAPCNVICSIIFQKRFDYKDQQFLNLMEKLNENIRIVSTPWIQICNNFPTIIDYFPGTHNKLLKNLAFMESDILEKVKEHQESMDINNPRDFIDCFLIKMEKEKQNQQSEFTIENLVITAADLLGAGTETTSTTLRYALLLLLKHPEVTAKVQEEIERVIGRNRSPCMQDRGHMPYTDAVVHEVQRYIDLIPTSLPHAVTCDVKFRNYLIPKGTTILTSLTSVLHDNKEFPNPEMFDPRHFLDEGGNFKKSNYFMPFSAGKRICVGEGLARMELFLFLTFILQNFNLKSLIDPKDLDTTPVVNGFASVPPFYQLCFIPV

[2] = target: Cytochrome P450 2C9 (Homo sapiens, UniProt P11712)
Cytochrome P450 2C9, sequence (P11712 whole entry, the tested form may be a part): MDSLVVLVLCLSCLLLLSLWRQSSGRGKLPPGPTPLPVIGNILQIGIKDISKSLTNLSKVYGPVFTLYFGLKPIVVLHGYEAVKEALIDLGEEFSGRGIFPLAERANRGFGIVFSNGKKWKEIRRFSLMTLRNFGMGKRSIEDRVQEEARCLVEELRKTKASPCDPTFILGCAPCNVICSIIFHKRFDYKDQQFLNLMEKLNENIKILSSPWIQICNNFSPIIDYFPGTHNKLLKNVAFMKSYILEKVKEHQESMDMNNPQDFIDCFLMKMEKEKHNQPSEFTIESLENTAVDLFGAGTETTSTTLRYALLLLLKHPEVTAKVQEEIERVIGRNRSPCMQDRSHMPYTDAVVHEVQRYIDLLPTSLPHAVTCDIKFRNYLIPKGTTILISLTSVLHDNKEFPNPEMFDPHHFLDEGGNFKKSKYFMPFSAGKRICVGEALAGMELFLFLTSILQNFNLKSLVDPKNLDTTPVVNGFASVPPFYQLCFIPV

[3] = target: T1, Fatty acid synthase (Homo sapiens, UniProt P49327); test: FAS thioesterase domain inhibitors, dose response, biochemical, endpoint fluorescence intensity, uHTS hits (AID 624327); type: functional;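 further: fluorescence from hydrolysis of an O-methyl fluorescein acyl ester substrate by the enzyme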
T1 sequence (P49327 whole entry, the tested form may be a part): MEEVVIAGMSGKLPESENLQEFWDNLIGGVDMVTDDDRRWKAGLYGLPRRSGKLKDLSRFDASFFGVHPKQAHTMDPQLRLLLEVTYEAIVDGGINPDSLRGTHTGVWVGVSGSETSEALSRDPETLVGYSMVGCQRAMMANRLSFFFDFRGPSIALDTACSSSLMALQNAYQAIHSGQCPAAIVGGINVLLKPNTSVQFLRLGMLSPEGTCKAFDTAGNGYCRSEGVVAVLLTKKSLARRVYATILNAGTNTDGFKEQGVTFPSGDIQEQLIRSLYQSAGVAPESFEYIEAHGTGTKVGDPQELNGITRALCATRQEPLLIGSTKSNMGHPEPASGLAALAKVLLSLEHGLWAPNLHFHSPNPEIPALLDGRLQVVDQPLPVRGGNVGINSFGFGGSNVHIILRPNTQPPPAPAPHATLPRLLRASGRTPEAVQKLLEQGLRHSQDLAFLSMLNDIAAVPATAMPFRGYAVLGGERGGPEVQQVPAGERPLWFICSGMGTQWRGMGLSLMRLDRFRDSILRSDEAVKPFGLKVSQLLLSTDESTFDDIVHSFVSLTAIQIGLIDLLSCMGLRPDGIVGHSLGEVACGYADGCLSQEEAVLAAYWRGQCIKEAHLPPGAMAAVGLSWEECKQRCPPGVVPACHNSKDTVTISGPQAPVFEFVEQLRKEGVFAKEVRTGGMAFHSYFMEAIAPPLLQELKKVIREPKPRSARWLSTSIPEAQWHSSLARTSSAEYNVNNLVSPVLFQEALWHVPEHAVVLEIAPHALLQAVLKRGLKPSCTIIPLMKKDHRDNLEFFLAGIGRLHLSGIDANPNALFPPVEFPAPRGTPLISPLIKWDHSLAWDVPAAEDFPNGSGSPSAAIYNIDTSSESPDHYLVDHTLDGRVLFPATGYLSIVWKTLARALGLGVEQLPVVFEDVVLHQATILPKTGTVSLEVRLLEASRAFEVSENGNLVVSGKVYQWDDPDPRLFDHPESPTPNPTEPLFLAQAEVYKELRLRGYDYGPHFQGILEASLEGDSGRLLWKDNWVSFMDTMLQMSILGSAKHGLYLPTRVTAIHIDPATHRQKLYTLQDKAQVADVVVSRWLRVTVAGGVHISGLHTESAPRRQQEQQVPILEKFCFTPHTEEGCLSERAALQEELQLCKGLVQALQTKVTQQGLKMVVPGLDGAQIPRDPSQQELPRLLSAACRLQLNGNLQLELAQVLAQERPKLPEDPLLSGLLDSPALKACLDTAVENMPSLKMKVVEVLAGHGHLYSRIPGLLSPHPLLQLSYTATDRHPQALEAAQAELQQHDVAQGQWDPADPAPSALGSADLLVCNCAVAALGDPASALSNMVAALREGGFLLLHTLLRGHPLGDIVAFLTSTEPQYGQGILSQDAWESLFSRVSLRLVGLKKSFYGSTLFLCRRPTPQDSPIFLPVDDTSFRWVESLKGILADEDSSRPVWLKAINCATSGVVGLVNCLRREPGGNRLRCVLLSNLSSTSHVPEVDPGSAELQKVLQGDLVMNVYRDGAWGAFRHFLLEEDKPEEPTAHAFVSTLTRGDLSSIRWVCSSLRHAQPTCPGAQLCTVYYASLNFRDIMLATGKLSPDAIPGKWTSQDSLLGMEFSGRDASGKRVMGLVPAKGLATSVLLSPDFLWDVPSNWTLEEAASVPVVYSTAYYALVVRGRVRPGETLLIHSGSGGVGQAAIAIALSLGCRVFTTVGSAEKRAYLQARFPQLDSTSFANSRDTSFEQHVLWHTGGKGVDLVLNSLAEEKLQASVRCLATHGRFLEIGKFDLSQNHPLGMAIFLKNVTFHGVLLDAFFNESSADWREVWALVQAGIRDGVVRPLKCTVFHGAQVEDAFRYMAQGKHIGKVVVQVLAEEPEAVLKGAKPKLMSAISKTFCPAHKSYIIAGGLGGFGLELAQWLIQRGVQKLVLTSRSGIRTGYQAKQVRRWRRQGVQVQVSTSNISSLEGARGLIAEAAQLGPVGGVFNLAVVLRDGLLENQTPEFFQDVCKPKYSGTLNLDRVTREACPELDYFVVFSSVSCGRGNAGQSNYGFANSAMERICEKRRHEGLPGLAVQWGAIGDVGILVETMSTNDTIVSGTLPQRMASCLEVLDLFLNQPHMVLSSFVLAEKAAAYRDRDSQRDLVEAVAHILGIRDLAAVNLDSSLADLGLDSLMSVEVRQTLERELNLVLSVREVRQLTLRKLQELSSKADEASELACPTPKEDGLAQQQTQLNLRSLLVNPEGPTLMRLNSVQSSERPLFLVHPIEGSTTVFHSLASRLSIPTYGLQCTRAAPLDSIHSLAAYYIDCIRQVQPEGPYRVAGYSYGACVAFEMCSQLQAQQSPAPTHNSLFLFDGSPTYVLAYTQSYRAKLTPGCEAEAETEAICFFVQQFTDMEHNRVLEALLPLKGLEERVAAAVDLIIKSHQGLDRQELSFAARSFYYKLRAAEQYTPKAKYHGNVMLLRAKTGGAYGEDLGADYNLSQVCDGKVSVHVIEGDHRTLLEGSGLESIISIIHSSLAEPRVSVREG

[4] = target: T1, Fatty acid synthase; test: FAS thioesterase domain inhibitors, dose response, biochemical, kinetic fluorescence intensity (AID 624326); type: functional;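 further: rate of fluorescence rise from hydrolysis of a fluorogenic O-methyl fluorescein ester substrate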
[5] = target: T2, Estrogen receptor (Homo sapiens, UniProt P03372);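 further: potency for inhibiting coactivator peptide recruitment to the receptor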
T2 sequence (P03372 whole entry): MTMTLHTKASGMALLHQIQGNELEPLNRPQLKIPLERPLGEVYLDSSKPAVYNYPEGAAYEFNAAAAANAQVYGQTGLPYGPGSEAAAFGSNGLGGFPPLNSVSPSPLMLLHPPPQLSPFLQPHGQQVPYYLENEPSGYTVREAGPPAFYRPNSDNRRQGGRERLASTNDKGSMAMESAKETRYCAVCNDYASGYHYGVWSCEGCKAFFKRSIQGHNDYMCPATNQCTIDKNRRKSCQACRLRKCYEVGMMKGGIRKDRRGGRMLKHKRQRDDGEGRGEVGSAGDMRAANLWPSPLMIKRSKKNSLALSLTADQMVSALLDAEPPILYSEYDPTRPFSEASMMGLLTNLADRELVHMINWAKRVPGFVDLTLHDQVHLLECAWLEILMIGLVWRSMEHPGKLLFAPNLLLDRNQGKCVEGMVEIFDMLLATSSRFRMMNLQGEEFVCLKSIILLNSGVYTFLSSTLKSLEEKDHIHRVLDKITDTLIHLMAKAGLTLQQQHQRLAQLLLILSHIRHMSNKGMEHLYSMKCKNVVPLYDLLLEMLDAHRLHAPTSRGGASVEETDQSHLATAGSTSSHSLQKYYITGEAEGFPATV

[6] = THP-1 cell cytotoxicity, dose response, cytotoxicity control for Vif-APOBEC3G degradation inhibitor project, THP-1 cells (AID 1117359); type: functional; settings: Human immunodeficiency virus 1, THP-1
[7] = growth suppression of beta-catenin-knockout colon cells, dose response, cell-based, HCT116, human colon tumor (AID 1045); type: functional;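 further: HCT116 colon tumor cells with beta catenin knocked out; cells exposed to compound for 60 hours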
[8] = target: Induced myeloid leukemia cell differentiation protein Mcl-1 (Homo sapiens, UniProt Q07820); type: functional
Induced myeloid leukemia cell differentiation protein Mcl-1, sequence (Q07820 whole entry, the tested form may be a part): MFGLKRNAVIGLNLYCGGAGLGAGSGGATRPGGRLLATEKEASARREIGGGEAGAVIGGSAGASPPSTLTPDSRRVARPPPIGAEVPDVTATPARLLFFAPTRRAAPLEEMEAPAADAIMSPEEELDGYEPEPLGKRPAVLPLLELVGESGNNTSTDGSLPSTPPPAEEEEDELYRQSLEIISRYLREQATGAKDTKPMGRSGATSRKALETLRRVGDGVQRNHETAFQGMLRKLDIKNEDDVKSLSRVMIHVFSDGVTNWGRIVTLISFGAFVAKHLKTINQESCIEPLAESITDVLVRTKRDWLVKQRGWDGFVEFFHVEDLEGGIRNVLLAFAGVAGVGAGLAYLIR

[9] = target: T3, RNA-binding protein pos-1 (Caenorhabditis elegans, UniProt G5EF15); test: inhibitors of POS-1/mex-3 RNA binding, dose response, biochemical, fluorescence polarization (AID 1964);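 further: purified POS-1 fused to maltose binding protein made in E. coli; potency of compounds blocking POS-1 binding to fluorescent RNA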
T3 sequence (G5EF15 whole entry): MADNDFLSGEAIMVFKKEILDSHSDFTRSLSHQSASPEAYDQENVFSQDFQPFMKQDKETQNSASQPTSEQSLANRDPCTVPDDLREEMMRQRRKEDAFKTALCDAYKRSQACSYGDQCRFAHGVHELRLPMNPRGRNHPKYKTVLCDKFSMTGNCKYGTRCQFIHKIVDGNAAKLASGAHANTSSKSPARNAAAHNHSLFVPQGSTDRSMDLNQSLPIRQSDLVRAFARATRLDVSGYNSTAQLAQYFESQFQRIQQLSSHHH

[10] = target: T4, Zinc finger protein mex-5 (Caenorhabditis elegans, UniProt Q9XUB2); test: MEX-5/TCR-2 RNA interaction inhibitors, dose response, biochemical, C. elegans, fluorescence polarization (AID 1960)
T4 sequence (Q9XUB2 whole entry): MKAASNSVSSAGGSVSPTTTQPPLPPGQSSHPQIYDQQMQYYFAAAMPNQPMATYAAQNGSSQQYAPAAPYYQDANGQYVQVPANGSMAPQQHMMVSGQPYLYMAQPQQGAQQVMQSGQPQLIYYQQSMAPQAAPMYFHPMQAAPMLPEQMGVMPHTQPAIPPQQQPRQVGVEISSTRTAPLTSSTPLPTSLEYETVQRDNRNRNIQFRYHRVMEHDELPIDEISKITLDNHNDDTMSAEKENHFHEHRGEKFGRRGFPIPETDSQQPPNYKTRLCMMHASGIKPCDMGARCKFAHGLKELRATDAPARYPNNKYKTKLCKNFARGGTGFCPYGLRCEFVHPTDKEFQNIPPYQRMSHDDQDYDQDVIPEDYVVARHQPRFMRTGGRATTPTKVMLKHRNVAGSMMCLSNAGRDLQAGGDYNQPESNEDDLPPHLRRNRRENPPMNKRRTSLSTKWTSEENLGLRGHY

[11] = target: T5, Bcl-2-related protein A1 (Mus musculus, UniProt Q07440); type: functional;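 further: confirmatory dose–response counterscreen on Bfl-1, used to check hits from a UBC13 polyubiquitin inhibitor campaign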
T5 sequence (Q07440 whole entry): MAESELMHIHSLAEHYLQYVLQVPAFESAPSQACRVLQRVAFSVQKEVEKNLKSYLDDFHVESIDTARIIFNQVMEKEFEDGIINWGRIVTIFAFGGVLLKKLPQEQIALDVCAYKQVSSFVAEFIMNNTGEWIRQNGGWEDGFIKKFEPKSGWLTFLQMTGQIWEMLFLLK

[12] = target: T6, Ubiquitin-conjugating enzyme E2 N (Homo sapiens, UniProt P61088); type: functional
T6 sequence (P61088 whole entry): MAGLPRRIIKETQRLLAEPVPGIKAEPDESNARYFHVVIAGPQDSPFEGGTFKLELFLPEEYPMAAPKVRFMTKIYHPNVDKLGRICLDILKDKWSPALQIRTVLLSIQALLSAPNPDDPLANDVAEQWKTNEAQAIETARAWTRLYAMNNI

[13] = target: T6, Ubiquitin-conjugating enzyme E2 N; type: functional; remark: listed apart in the source
[14] = target: T7, Carboxy-terminal domain RNA polymerase II polypeptide A small phosphatase 1 (Homo sapiens, UniProt Q9GZU7); test: inhibitors of CTDSP1, concentration-response testing, biochemical assay, absorbance-based, actives from ultra-high-throughput screening (AID 540297); type: functional
T7 sequence (Q9GZU7 whole entry): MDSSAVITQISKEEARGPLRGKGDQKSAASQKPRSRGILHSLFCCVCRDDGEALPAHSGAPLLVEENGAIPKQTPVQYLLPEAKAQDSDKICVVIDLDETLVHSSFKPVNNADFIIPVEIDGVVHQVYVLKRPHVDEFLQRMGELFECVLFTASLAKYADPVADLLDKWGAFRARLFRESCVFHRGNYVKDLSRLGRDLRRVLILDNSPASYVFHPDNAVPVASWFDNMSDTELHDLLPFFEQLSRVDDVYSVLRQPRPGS

[15] = target: T8, Cytochrome P450 1A2 (Homo sapiens, UniProt P05177)
T8 sequence (P05177 whole entry): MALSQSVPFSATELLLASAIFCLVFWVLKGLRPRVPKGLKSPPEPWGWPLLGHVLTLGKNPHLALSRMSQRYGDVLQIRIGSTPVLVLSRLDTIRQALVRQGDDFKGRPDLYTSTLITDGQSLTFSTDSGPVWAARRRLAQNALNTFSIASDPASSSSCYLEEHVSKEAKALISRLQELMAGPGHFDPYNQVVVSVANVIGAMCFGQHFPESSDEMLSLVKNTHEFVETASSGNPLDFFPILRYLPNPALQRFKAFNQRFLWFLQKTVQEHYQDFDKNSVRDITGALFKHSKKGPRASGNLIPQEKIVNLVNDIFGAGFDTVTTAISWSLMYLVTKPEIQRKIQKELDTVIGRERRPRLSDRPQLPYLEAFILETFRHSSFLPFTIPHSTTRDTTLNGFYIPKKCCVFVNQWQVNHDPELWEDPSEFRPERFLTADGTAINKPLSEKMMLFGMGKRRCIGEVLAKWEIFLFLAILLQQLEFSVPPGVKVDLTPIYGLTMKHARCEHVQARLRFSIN

[16] = target: Cytochrome P450 3A4 (Homo sapiens, UniProt P08684);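 further: CYP3A4 tested as one member of a cytochrome P450 panel screen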
Cytochrome P450 3A4, sequence (P08684 whole entry): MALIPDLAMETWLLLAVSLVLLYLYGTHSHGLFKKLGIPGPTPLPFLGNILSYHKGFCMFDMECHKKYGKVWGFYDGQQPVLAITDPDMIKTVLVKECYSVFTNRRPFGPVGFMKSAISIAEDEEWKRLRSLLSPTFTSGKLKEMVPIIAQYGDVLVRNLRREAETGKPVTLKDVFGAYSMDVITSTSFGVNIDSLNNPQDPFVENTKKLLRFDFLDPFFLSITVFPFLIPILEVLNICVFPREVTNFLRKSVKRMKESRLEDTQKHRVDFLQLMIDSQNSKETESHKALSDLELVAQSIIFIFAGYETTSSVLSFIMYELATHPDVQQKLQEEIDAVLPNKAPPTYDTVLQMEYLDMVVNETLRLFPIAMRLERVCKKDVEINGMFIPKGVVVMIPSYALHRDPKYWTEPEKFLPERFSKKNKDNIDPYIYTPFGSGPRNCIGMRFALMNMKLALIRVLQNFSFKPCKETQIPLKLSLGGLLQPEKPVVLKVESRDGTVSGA

Compound: CNC(=O)/C(=C\C=C\c1ccccc1)NC(=O)c1ccc([N+](=O)[O-])cc1
IC50 [3]: 0.786 µM (active)
IC50 [4]: 0.809 µM (active)

Compound: Clc1ccc(CN2CCCN(Cc3ccc(Cl)cc3)C2c2cc3ccccc3c3ccccc23)cc1
AC50 [2]: inconclusive

Compound: CCN(CC)S(=O)(=O)c1ccc(/C=C/C(=O)Nc2ccc(N3CCOCC3)cc2)cc1
CC50 [6]: > 40 µM (active)

Compound: Cn1c(=O)c2nc(COc3ccc(C(C)(C)C)cc3)[nH]c2n(C)c1=O
IC50 [3]: 4.28 µM (active)
IC50 [4]: 6.26 µM (active)

Compound: CCN(CC)c1ccc(NC2=C(Cl)C(=O)c3ccccc3C2=O)cc1
EC50 [7]: 1 µM (active)
IC50 [8]: 1.47 µM (active)
CC50 [6]: 4.24 µM (active)

Compound: CCOC(=O)C1=CC[C@H]2c3c(c4ccccc4n3C)C(=O)C1N2C(=O)OC(C)(C)C
IC50 [3]: 10.8 µM (active)
IC50 [4]: 11.9 µM (active)

Compound: Oc1ccc(Cn2cc[nH]c2=S)cc1
AC50 [15]: 6.31 µM (inconclusive)
AC50 [16]: 15.8 µM (inconclusive)
AC50 [2]: inconclusive

The remaining lines, values ahead:

AC50 [1]: 11.2 µM (inconclusive)
AC50 [2]: inconclusive
Compound: O=C(Nc1cccn2ncnc12)c1ccc(Cl)cc1Cl

IC50 [5]: 15.5 µM (active)
Compound: O=C(Nc1ccc2oc(-c3ccccc3F)nc2c1)c1cncc(Br)c1

EC50 [9]: > 300 µM (not active)
EC50 [10]: > 300 µM (not active)
IC50 [11]: 5.82 µM (active)
IC50 [12]: 9 µM (active)
IC50 [13]: 8.28 µM (active)
Compound: Nc1ccc2[nH]c(-c3cccc(-c4nc5cc(N)ccc5[nH]4)n3)nc2c1

IC50 [14]: 6.77 µM (active)
AC50 [2]: inconclusive
Compound: COc1ccc2cc(C(=O)Nc3ccc(F)cc3)sc(=O)c2c1OC
